Test results published in patent publication US9273058B2 (BRISTOL-MYERS SQUIBB COMPANY, priority 2013, dated 2016).
Where two headings read alike, the source gives them in different places.

How the values were obtained:
[1] = biological target: CK1δ (Homo sapiens, UniProt P48730); assay: CK1δ kinase assay (Caliper LabChip electrophoretic separation of fluoresceinated peptide substrate and product); type: biochemical; conditions: 200 pM CK1δ, 50 μM ATP, 1.5 μM peptide, 22 hours at room temperature
Description: (§1) CK1ε and CK1δ Kinase Assays
(§2) The kinase assay was performed in V-bottom 384-well plates. […] The reaction was incubated at room temperature for 22 hours and terminated by adding 45 μl of 35 mM EDTA to each sample. The reaction mixture was analyzed on the Caliper LABCHIP®3000 (Caliper, Hopkinton, Mass.) by electrophoretic separation of the unphosphorylated substrate and phosphorylated product. […] Compounds were dissolved at 10 mM in dimethylsulfoxide (DMSO) and evaluated at eleven concentrations. IC50 values were derived by non-linear regression analysis.

[2] = biological target: CK1ε (Homo sapiens, UniProt P49674); assay: CK1ε kinase assay (Caliper LabChip electrophoretic separation of fluoresceinated peptide substrate and product); type: biochemical; conditions: 200 pM CK1ε, 50 μM ATP, 1.5 μM peptide, 22 hours at room temperature
Description: as §1, §2

Sequence of CK1ε (P49674 whole entry): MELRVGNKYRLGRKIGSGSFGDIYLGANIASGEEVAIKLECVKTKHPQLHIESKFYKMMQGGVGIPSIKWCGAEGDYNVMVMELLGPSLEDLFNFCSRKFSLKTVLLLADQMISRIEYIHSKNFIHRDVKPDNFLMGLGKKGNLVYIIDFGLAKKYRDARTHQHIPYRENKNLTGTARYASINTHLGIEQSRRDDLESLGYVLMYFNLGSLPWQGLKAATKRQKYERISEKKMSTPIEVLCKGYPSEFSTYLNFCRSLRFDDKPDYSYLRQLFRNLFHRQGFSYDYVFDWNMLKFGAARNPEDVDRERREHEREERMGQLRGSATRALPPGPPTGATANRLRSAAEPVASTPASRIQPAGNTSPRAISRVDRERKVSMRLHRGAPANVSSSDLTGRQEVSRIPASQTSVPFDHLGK
Sequence of CK1δ (P48730 whole entry): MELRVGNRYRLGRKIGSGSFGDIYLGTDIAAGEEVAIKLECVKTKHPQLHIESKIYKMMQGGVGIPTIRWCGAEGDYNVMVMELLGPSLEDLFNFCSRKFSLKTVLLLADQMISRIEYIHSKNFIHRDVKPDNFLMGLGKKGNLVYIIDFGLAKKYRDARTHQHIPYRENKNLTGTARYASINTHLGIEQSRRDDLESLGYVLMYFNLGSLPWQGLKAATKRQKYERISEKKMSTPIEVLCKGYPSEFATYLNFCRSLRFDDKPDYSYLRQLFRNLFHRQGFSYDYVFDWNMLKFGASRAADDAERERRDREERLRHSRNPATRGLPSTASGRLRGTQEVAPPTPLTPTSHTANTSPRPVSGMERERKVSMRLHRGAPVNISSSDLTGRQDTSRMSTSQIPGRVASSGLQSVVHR

SMILES	IC50 ([1]; read-out: CK1δ IC50 range) [nM]	IC50 ([2]; read-out: CK1ε IC50 range) [nM]	IC50 ([1]; read-out: CK1δ) [nM]	IC50 ([2]; read-out: CK1ε) [nM]
NC(=O)c1c(-c2cccc(Cl)c2)nn2c1CN(C(=O)NC1CC(F)(F)C1)CC2CF (single isomer, unassigned) [Compound A113, 2-(3-Chlorophenyl)-N^5-(3,3-difluorocyclobutyl)-7-(fluoromethyl)-6,7-dihydropyrazolo[1,5-a]pyrazine-3,5(4H)-dicarboxamide]	0.01 to 10	0.01 to 10		
CS(=O)(=O)[C@H]1C[C@@H](NC(=O)N2CCn3nc(-c4cccc(Cl)c4)c(C(N)=O)c3C2)C1 [Compound 273, 2-(3-Chlorophenyl)-N^5-((1s,3s)-3-(methylsulfonyl)cyclobutyl)-6,7-dihydropyrazolo[1,5-a] pyrazine-3,5(4H)-dicarboxamide]	0.01 to 10	0.01 to 10		
CC(C)(NC(=O)N1CCn2nc(-c3ccc(F)c(Cl)c3)c(C(N)=O)c2C1)c1ccc(C#N)cc1 [Compound 187, 2-(3-Chloro-4-fluorophenyl)-N^5-(2-(4-cyanophenyl)propan-2-yl)-6,7-dihydropyrazolo [1,5-a]pyrazine-3,5(4H)-dicarboxamide]	0.01 to 10	0.01 to 10		
NC(=O)c1c(-c2cccc(F)c2)nn2c1CN(C(=O)NC1CCC1)CC2 [Compound 8, N^5-Cyclobutyl-2-(3-fluorophenyl)-6,7-dihydropyrazolo[1,5-a]pyrazine-3,5(4H)-dicarboxamide]	10 to 100	10 to 100		
CO[C@H]1C[C@@H](NC(=O)N2CCn3nc(-c4cccc(Cl)c4)c(C(N)=O)c3C2)C1 [Compound 177, 2-(3-Chlorophenyl)-N^5-((1s,3s)-3-methoxycyclobutyl)-6,7-dihydropyrazolo[1,5-a] pyrazine-3,5(4H)-dicarboxamide]	0.01 to 10	0.01 to 10		
CC(C)(C)NC(=O)N1Cc2c(C(N)=O)c(-c3ccc(F)c(Cl)c3)nn2C(CCO)C1 (single isomer, unassigned) [Compound A96, N^5-(tert-Butyl)-2-(3-chloro-4-fluorophenyl)-7-(2-hydroxyethyl)-6,7-dihydropyrazolo[1,5-a]pyrazine-3,5(4H)-dicarboxamide]	0.01 to 10	0.01 to 10		
NC(=O)c1c(-c2ccc(F)c(Cl)c2)nn2c1CN(C(=O)NC1CC(F)(F)C1)C[C@@H]2CO [Compound A116, (R)-2-(3-Chloro-4-fluorophenyl)-N^5-(3,3-difluorocyclobutyl)-7-(hydroxymethyl)-6,7-dihydropyrazolo[1,5-a]pyrazine-3,5(4H)-dicarboxamide]	0.01 to 10	0.01 to 10		
NC(=O)c1c(-c2cccc(F)c2)nn2c1CN(C(=O)Nc1c(Cl)cccc1C(F)(F)F)CC2 [Compound 65, N^5-(2-Chloro-6-(trifluoromethyl)phenyl)-2-(3-fluorophenyl)-6,7-dihydropyrazolo[1,5-a]pyrazine-3,5(4H)-dicarboxamide]	100 to 2000	100 to 2000		
CC(C)(C)NC(=O)N1Cc2c(C(N)=O)c(-c3ccc(F)c(Cl)c3)nn2C(C(C)(C)C)C1 (stereo not drawn) [Compound A118, N^5-7-Di-tert-butyl-2-(3-chloro-4-fluorophenyl)-6,7-dihydropyrazolo[1,5-a]pyrazine-3,5(4H)-dicarboxamide]	0.01 to 10	0.01 to 10		
CC(C)(C)C1CN(C(=O)NC2CC(F)(F)C2)Cc2c(C(N)=O)c(-c3ccc(F)c(Cl)c3)nn21 (single isomer, unassigned) [Compound A121, 7-(tert-Butyl)-2-(3-chloro-4-fluorophenyl)-N5-(3,3-difluorocyclobutyl)-6,7-dihydropyrazolo[1,5-a]pyrazine-3,5(4H)-dicarboxamide]	100 to 2000	10 to 100		
CC(C)(C)NC(=O)N1CCn2nc(-c3cccc(Cl)c3)c(C(N)=O)c2C1 [Compound 108, N^5-(tert-Butyl)-2-(3-chlorophenyl)-6,7-dihydropyrazolo[1,5-a] pyrazine-3,5(4H)-dicarboxamide]	0.01 to 10	0.01 to 10	0.9	2.4
NC(=O)c1c(-c2ccc(Cl)c(Cl)c2)nn2c1CN(C(=O)NC1CC(F)(F)C1)C[C@@H]2CF [Compound A30, (R)-2-(3,4-dichlorophenyl)-N^5-(3,3-difluorocyclobutyl)-7-(fluoromethyl)-6,7-dihydropyrazolo[1,5-a] pyrazine-3,5(4H)-dicarboxamide]	0.01 to 10	0.01 to 10	0.3	0.1
CC(C)(CO)NC(=O)N1CCn2nc(-c3ccc(F)c(Cl)c3)c(C(N)=O)c2C1 [Compound A48, 2-(3-Chloro-4-fluorophenyl)-N^5-(1-hydroxy-2-methylpropan-2-yl)-6,7-dihydropyrazolo[1,5-a] pyrazine-3,5(4H)-dicarboxamide]	0.01 to 10	0.01 to 10		
NC(=O)c1c(-c2cccc(Cl)c2)nn2c1CN(C(=O)NC1CC3(CC3)C1)CC2 [Compound 181, 2-(3-Chlorophenyl)-N^5-(spiro[2.3]hexan-5-yl)-6,7-dihydropyrazolo[1,5-a]pyrazine-3,5(4H)-dicarboxamide]	0.01 to 10	0.01 to 10		
NC(=O)c1c(-c2ccc(F)c(Cl)c2)nn2c1CN(C(=O)N[C@H]1C[C@@H](F)C1)CC2 [Compound 190, 2-(3-Chloro-4-fluorophenyl)-N^5-((1s,3s)-3-fluorocyclobutyl)-6,7-dihydropyrazolo[1,5-a] pyrazine-3,5(4H)-dicarboxamide]	0.01 to 10	0.01 to 10		
NC(=O)c1c(-c2cccc(F)c2)nn2c1CN(C(=O)Nc1ccccc1C(F)(F)F)CC2 [Compound 48, 2-(3-Fluorophenyl)-N^5-(2-(trifluoromethyl)phenyl)-6,7-dihydropyrazolo[1,5-a]pyrazine-3,5(4H)-dicarboxamide]	10 to 100	100 to 2000		
NC(=O)c1c(-c2ccc(Cl)c(Cl)c2)nn2c1CN(C(=O)NC1CC(F)(F)C1)CC2 [Compound 294, 2-(3,4-Dichlorophenyl)-N^5-(3,3-difluorocyclobutyl)-6,7-dihydropyrazolo[1,5-a] pyrazine-3,5(4H)-dicarboxamide]	0.01 to 10	0.01 to 10		
CC(C)(C)NC(=O)N1Cc2c(C(N)=O)c(-c3ccc(F)c(Cl)c3)nn2C(COC(F)F)C1 (stereo not drawn) [Compound A21, N^5-(tert-Butyl)-2-(3-chloro-4-fluorophenyl)-7-((difluoromethoxy)methyl)-6,7-dihydropyrazolo[1,5-a]pyrazine-3,5(4H)-dicarboxamide]	10 to 100	0.01 to 10		
NC(=O)c1c(-c2ccc(F)c(Cl)c2)nn2c1CN(C(=O)NC13CCC(CF)(CC1)C3)CC2 [Compound A138, 2-(3-Chloro-4-fluorophenyl)-N^5-(4-(fluoromethyl)bicyclo[2.2.1]heptan-1-yl)-6,7-dihydropyrazolo[1,5-a]pyrazine-3,5(4H)-dicarboxamide]	0.01 to 10	0.01 to 10		
CC1CC(NC(=O)N2CCn3nc(-c4ccc(Cl)c(Cl)c4)c(C(N)=O)c3C2)C1 (single isomer, unassigned) [Compound 249, 2-(3,4-Dichlorophenyl)-N^5-(3-methylcyclobutyl)-6,7-dihydropyrazolo[1,5-a]pyrazine-3,5(4H)-dicarboxamide]	0.01 to 10	0.01 to 10		
COc1cc(NC(=O)N2CCn3nc(-c4cccc(F)c4)c(C(N)=O)c3C2)ncn1 [Compound 75, 2-(3-Fluorophenyl)-N^5-(6-methoxypyrimidin-4-yl)-6,7-dihydropyrazolo[1,5-a]pyrazine-3,5(4H)-dicarboxamide]	10 to 100	10 to 100		
CC(C)(C)NC(=O)N1Cc2c(C(N)=O)c(-c3ccc(F)c(Cl)c3)nn2C(C(=O)NC2CC2)C1 (stereo not drawn) [Compound A24, N^5-(tert-Butyl)-2-(3-chloro-4-fluorophenyl)-N^7-cyclopropyl-6,7-dihydropyrazolo[1,5-a]pyrazine-3,5,7(4H)-tricarboxamide]	100 to 2000	10 to 100		
NC(=O)c1c(-c2cccc(F)c2)nn2c1CN(C(=O)NC(CF)(CF)CF)CC2 [Compound A95, N^5-(1,3-Difluoro-2-(fluoromethyl)propan-2-yl)-2-(3-fluorophenyl)-6,7-dihydropyrazolo[1,5-a]pyrazine-3,5(4H)-dicarboxamide]	0.01 to 10	10 to 100		
NC(=O)c1c(-c2cccc(Cl)c2)nn2c1CN(C(=O)N[C@@H]1C[C@@H]3[C@H](C1)C3(F)F)CC2 [Compound 183, 2-(3-Chlorophenyl)-N^5-((1R,3s,5S)-6,6-difluorobicyclo[3.1.0]hexan-3-yl)-6,7-dihydropyrazolo[1,5-a]pyrazine-3,5(4H)-dicarboxamide]	0.01 to 10	0.01 to 10		
N#Cc1ccc(C23CCC(NC(=O)N4CCn5nc(-c6ccc(F)c(Cl)c6)c(C(N)=O)c5C4)(CC2)CC3)cc1 [Compound A51, 2-(3-Chloro-4-fluorophenyl)-N^5-(4-(4-cyanophenyl)bicyclo[2.2.2]octan-1-yl)-6,7-dihydropyrazolo[1,5-a]pyrazine-3,5(4H)-dicarboxamide]	0.01 to 10	0.01 to 10		
NC(=O)c1c(-c2ccc(F)c(Cl)c2)nn2c1CN(C(=O)NC1CCCC1)CC2C(F)F (stereo not drawn) [Compound A11, 2-(3-Chloro-4-fluorophenyl)-N^5-cyclopentyl-7-(difluoromethyl)-6,7-dihydropyrazolo[1,5-a]pyrazine-3,5(4H)-dicarboxamide]	0.01 to 10	0.01 to 10		
N#Cc1ccc(NC(=O)N2Cc3c(C(N)=O)c(-c4cccc(Cl)c4)nn3C(CF)C2)cc1 (stereo not drawn) [Compound A4, 2-(3-Chlorophenyl)-N^5-(4-cyanophenyl)-7-(fluoromethyl)-6,7-dihydropyrazolo[1,5-a]pyrazine-3,5(4H)-dicarboxamide]		0.01 to 10		
